Legend:
Assay in all cases: radiometric filter-binding kinase assay, Kinaseprofiler
KDR (human) = KDR (human) (UniProt P35968); details: compound 10.0 µM; ATP 90 µM
MAP3K5 (human) = MAP3K5 (human) (UniProt Q99683); details: ATP 200 µM
TLK2 (human) = TLK2 (human) (UniProt Q86UE8); details: compound 10.0 µM; ATP 10 µM
TBK1 (human) = TBK1 (human) (UniProt Q9UHD2); details: compound 1.0 µM; ATP 155 µM
CDK1 CCNB1 (human) = CDK1 CCNB1 (human) (UniProt P06493+P14635); details: compound 10.0 µM; ATP 45 µM
DYRK2 (human) = DYRK2 (human) (UniProt Q92630); details: compound 10.0 µM; ATP 15 µM
[1] = test system: FLT4 (human), P35916 [V1128L/H1146R]; details: compound 1.0 µM; ATP 200 µM
RPS6KA2 KD1 KD2 (human) = RPS6KA2 KD1 KD2 (human) (UniProt Q15349); details: compound 1.0 µM; ATP 10 µM
MINK1 (human) = MINK1 (human) (UniProt Q8N4C8); details: compound 1.0 µM; ATP 185 µM
RPS6KA4 KD1 KD2 (human) = RPS6KA4 KD1 KD2 (human) (UniProt O75676); details: ATP 45 µM
RPS6KA4 KD1 KD2 (human), sequence (O75676 whole entry, looked up): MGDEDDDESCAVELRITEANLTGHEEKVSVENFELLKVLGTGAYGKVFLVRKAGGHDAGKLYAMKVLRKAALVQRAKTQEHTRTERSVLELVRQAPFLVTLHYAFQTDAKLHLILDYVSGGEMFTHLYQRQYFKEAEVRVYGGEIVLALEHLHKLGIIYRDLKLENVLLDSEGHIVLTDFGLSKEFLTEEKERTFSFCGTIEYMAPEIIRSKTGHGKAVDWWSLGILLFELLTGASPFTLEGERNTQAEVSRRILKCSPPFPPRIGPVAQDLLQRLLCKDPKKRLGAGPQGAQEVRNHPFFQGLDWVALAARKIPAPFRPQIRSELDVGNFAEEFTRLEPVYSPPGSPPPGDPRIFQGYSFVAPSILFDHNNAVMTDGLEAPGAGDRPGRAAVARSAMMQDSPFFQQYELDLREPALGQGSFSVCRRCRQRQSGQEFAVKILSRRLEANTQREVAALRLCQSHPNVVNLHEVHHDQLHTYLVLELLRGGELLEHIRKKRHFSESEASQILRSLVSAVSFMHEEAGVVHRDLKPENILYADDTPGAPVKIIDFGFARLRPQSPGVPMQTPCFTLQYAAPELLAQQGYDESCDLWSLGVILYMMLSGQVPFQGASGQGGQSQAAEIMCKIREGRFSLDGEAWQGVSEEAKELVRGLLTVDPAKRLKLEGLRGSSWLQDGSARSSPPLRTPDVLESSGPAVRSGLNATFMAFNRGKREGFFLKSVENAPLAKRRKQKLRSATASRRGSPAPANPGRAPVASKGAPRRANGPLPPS

PRKCA (human) = PRKCA (human) (UniProt P17252); details: compound 10.0 µM; ATP 45 µM
GCK (human) = GCK (human) (UniProt Q12851); details: compound 1.0 µM; ATP 200 µM
PRKX (human) = PRKX (human) (UniProt P51817); details: compound 10.0 µM; ATP 200 µM
BRSK1 (human) = BRSK1 (human) (UniProt Q8TDC3); details: ATP 200 µM
BRSK1 (human), sequence (Q8TDC3 whole entry, looked up): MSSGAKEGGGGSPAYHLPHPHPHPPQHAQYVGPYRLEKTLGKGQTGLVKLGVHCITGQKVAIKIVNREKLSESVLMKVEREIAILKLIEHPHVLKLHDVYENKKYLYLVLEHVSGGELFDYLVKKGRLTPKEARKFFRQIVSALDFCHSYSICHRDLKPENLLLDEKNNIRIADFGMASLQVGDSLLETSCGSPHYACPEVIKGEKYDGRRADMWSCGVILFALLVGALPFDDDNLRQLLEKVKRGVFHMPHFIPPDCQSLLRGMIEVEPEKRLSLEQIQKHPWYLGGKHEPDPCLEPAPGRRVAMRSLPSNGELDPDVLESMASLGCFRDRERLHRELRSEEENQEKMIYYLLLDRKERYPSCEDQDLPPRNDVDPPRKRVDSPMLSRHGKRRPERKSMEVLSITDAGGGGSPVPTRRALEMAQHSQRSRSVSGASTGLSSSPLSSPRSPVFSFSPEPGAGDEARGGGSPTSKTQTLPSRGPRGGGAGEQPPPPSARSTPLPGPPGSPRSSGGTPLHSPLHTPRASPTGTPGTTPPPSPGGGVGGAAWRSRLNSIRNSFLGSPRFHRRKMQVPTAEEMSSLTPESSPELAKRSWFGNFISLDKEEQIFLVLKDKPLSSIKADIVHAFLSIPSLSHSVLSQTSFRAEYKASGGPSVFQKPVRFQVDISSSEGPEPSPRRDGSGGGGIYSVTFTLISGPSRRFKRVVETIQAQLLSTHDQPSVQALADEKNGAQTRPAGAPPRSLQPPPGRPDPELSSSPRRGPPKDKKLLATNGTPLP

AURKB (human) = AURKB (human) (UniProt Q96GD4); details: ATP 10 µM
AURKB (human), sequence (Q96GD4 whole entry, looked up): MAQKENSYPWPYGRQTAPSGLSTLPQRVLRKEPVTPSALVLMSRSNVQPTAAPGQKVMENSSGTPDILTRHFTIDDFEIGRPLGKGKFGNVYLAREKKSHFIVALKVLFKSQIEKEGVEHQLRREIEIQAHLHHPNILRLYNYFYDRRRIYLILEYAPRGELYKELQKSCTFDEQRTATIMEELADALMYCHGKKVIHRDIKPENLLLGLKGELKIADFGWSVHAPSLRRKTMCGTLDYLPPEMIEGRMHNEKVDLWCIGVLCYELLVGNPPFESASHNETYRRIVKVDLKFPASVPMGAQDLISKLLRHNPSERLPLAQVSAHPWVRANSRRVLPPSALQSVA

MKNK2 (human) = MKNK2 (human) (UniProt Q9HBH9); details: ATP 120 µM
MKNK2 (human), sequence (Q9HBH9 whole entry, looked up): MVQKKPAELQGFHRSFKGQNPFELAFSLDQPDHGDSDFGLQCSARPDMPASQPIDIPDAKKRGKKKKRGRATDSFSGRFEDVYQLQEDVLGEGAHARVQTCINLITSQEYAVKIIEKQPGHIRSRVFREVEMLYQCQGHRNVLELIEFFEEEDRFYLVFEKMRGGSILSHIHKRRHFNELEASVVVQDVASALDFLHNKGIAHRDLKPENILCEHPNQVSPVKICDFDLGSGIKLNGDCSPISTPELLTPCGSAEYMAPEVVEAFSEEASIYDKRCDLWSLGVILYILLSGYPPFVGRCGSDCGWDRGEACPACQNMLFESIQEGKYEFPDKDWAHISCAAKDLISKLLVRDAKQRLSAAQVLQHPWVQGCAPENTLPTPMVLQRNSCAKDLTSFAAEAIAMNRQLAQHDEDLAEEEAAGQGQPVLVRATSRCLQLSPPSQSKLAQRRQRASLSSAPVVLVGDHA

ULK2 (human) = ULK2 (human) (UniProt Q8IYT8); details: compound 10.0 µM; ATP 15 µM
CHEK1 (human) = CHEK1 (human) (UniProt O14757); details: compound 10.0 µM; ATP 90 µM
STK33 (human) = STK33 (human) (UniProt Q9BYT3); details: compound 10.0 µM; ATP 155 µM
MELK (human) = MELK (human) (UniProt Q14680); details: compound 10.0 µM; ATP 45 µM
FLT3 (human) = FLT3 (human) (UniProt P36888); details: compound 1.0 µM; ATP 200 µM
[2] = test system: BLK (human), P51451 [M278V]; details: compound 10.0 µM; ATP 45 µM
IRAK1 (human) = IRAK1 (human) (UniProt P51617); details: compound 10.0 µM; ATP 45 µM
CAMK2G (human) = CAMK2G (human) (UniProt Q13555); details: compound 10.0 µM; ATP 10 µM
ACVR1B (human) = ACVR1B (human) (UniProt P36896); details: compound 10.0 µM; ATP 10 µM
SIK1 (human) = SIK1 (human) (UniProt P57059); details: ATP 45 µM
[3] = target: JAK2 JH1 catalytic (human) (UniProt O60674); details: compound 10.0 µM; ATP 45 µM
ULK3 (human) = ULK3 (human) (UniProt Q6PHR2); details: compound 1.0 µM; ATP 10 µM
LYN (human) = LYN (human) (UniProt P07948); details: compound 10.0 µM; ATP 70 µM
LYN (human), sequence (P07948 whole entry, looked up): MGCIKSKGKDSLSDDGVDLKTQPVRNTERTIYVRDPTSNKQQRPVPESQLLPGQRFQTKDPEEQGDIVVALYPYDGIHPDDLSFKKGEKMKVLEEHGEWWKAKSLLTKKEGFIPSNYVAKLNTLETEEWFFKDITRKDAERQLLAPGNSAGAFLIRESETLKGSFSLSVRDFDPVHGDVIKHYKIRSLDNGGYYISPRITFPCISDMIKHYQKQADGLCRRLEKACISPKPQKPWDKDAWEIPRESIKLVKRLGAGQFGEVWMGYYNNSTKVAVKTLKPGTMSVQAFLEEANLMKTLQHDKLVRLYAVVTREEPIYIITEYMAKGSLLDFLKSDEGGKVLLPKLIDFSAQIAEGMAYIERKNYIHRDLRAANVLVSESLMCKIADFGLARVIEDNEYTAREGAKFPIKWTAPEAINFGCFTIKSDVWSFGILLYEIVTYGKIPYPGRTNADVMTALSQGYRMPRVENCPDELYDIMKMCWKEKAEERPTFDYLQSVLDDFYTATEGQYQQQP

STK17A (human) = STK17A (human) (UniProt Q9UEE5); details: compound 1.0 µM; ATP 10 µM
RPS6KA6 KD1 KD2 (human) = RPS6KA6 KD1 KD2 (human) (UniProt Q9UK32); details: compound 1.0 µM; ATP 45 µM
MTOR FKBP1A (human) = MTOR FKBP1A (human) (UniProt P42345+P62942); details: ATP 45 µM
MTOR FKBP1A (human), sequence (P62942 whole entry, looked up, other chains not shown): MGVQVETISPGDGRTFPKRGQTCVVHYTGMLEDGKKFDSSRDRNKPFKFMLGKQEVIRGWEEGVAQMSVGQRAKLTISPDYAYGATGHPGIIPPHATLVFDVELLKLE

[4] = target: PRKAA2 PRKAB1 PRKAG1 (human) (UniProt P54619+P54646+Q9Y478); details: ATP 45 µM
CAMK2B (human) = CAMK2B (human) (UniProt Q13554); details: ATP 15 µM
CAMK2B (human), sequence (Q13554 whole entry, looked up): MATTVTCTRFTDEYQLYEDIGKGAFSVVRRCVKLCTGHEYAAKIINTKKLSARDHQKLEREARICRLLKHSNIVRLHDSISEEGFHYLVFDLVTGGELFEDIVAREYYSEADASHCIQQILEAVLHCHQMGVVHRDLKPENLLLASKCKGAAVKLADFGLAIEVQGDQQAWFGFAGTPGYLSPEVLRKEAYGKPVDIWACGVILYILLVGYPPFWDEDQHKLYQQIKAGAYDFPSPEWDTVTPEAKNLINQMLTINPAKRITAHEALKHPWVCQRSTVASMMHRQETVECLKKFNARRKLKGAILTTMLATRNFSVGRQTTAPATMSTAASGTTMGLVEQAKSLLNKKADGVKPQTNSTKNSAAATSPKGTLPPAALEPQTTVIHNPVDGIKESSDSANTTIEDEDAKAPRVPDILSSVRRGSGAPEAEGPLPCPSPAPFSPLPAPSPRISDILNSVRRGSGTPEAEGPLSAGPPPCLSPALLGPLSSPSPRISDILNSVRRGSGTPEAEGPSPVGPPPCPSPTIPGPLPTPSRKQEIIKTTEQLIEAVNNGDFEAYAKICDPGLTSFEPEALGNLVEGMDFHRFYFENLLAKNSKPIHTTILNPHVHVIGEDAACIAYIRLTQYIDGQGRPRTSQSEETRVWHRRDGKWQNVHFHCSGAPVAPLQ

FLT1 (human) = FLT1 (human) (UniProt P17948); details: ATP 200 µM
FLT1 (human), sequence (P17948 whole entry, looked up): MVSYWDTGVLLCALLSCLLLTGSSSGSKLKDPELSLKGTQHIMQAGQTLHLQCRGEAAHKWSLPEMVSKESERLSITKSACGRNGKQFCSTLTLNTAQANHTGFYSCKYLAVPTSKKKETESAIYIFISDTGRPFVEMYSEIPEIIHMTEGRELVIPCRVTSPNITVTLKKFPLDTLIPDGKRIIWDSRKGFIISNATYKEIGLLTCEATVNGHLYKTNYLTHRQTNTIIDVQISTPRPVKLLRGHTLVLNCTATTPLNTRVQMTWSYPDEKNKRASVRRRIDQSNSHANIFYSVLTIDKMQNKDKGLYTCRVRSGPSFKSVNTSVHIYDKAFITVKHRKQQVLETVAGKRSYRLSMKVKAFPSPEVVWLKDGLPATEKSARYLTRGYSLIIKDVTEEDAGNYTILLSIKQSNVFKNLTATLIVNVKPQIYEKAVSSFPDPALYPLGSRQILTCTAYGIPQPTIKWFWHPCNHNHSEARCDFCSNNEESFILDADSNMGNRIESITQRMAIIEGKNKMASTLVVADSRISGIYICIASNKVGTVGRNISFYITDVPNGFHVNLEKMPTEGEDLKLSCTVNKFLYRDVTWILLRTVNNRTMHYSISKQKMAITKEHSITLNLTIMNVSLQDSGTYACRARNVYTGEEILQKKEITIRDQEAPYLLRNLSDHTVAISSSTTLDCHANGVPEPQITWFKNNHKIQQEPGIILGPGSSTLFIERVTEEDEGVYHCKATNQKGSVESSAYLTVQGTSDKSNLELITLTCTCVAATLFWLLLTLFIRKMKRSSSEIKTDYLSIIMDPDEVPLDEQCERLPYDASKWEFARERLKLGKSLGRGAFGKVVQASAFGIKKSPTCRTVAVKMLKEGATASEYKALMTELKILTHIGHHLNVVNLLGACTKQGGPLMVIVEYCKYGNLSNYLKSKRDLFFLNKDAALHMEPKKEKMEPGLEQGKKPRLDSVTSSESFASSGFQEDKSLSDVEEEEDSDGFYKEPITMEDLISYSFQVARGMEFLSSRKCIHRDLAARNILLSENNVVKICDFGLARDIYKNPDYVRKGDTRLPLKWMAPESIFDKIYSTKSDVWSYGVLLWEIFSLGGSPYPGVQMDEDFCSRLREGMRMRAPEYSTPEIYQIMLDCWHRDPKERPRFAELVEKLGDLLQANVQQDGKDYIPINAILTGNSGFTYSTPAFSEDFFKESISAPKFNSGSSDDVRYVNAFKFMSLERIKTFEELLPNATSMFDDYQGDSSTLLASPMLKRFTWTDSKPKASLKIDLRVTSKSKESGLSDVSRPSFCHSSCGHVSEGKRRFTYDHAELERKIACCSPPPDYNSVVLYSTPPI

SMILES: COC(=O)[C@]1(O)C[C@@H]2O[C@@]1(C)n1c3ccccc3c3c4c(c5c6ccccc6n2c5c31)C(=O)NC4
- residual activity (KDR (human)): 0%
- residual activity (MAP3K5 (human); compound 1.0 µM): 0%
- residual activity (MAP3K5 (human); compound 10.0 µM): 0%
- residual activity (TLK2 (human)): 0%
- residual activity (TBK1 (human)): -1%
- residual activity (CDK1 CCNB1 (human)): -1%
- residual activity (DYRK2 (human)): -4%
- residual activity [1]: 0%
- residual activity (RPS6KA2 KD1 KD2 (human)): 0%
- residual activity (MINK1 (human)): 0%
- residual activity (RPS6KA4 KD1 KD2 (human); compound 1.0 µM): -1%
- residual activity (RPS6KA4 KD1 KD2 (human); compound 10.0 µM): 0%
- residual activity (PRKCA (human)): 0%
- residual activity (GCK (human)): 0%
- residual activity (PRKX (human)): 0%
- residual activity (BRSK1 (human); compound 1.0 µM): -1%
- residual activity (BRSK1 (human); compound 10.0 µM): 0%
- residual activity (AURKB (human); compound 1.0 µM): 0%
- residual activity (AURKB (human); compound 10.0 µM): 0%
- residual activity (MKNK2 (human); compound 1.0 µM): 0%
- residual activity (MKNK2 (human); compound 10.0 µM): 0%
- residual activity (ULK2 (human)): 0%
- residual activity (CHEK1 (human)): -1%
- residual activity (STK33 (human)): 0%
- residual activity (MELK (human)): -1%
- residual activity (FLT3 (human)): 0%
- residual activity [2]: 0%
- residual activity (IRAK1 (human)): 0%
- residual activity (CAMK2G (human)): 0%
- residual activity (ACVR1B (human)): 0%
- residual activity (SIK1 (human); compound 1.0 µM): 0%
- residual activity (SIK1 (human); compound 10.0 µM): 0%
- residual activity [3]: -1%
- residual activity (ULK3 (human)): 0%
- residual activity (LYN (human)): 0%
- residual activity (STK17A (human)): 0%
- residual activity (RPS6KA6 KD1 KD2 (human)): -2%
- residual activity (MTOR FKBP1A (human); compound 1.0 µM): 89%
- residual activity (MTOR FKBP1A (human); compound 10.0 µM): 79%
- residual activity ([4]; compound 1.0 µM): -5%
- residual activity ([4]; compound 10.0 µM): 1%
- residual activity (CAMK2B (human); compound 1.0 µM): 0%
- residual activity (CAMK2B (human); compound 10.0 µM): -1%
- residual activity (FLT1 (human); compound 1.0 µM): 0%
- residual activity (FLT1 (human); compound 10.0 µM): 0%

From the kinase profiling compilation of Christmann-Franck et al. (2016)
